The values that follow come from publication PMC8233378, “Acyclic nucleoside phosphonates with adenine nucleobase inhibit Trypanosoma brucei adenine phosphoribosyltransferase in vitro” (Scientific Reports, 2021).

Where two headings read alike, the source gives them in different places.

The test system of one data set is T. brucei BSF cells. Nature of the data set: Cell cycle analysis of treated trypanosomes (microscopy, flow cytometry with propidium iodide). It counts as cell-based, Trypanosoma brucei. The text has this:
The inhibition of the growth of T. brucei BSF in HMI-11 medium in single micromolar EC50 values (Table 1) was somewhat surprising considering the dispensability of APRT enzymes for these cells. […] To get deeper insights into the in vivo action of ANPs on APRT enzyme we tested their cytotoxicity on wild type cells grown in HMI-11^adenine medium. In this medium, the cells rely on the activity of the APRT enzyme to produce AMP and other […]. […] To corroborate this observation, we also tested cells with induced ectopic expression of V5-tagged APRT1 in both types of media and in the presence of the selected ANPs. […] The changes in the distribution of different cell cycle stages within a population were further assessed by flow cytometry assaying the DNA content by staining the cells with propidium iodide (Fig. 8A).
BFS trypanosomes in log phase were resuspended in HMI-11 medium to a density of 2 × 10^5 cells ml^−1. Test compounds at concentrations ranging from 1 to 16 µM were added to the cell suspension followed by 12 h incubation at 37 °C. The cell cycle analysis was performed as described previously. Briefly, approximately 2 × 10^6 cells were washed with PBS and fixed in 1 ml of 70% methanol in 1 × PBS and stored at 4 °C overnight. Following a PBS wash, samples were incubated with 10 µg/ml propidium iodide and 9.6 µg/ml of RNaseA at 37 °C for 45 min. Samples were analyzed on a FACS Canto II (BD) collecting 10,000 gated events.
On the technique in general: Flow cytometry measures light scatter and fluorescence of single cells or particles in a stream.

Data set [1] can be described thus: Cytotoxicity of the prodrug in human cells (CellTiter-Glo 2.0), NHDF. Type of data set: cell-based. The note with it: human, normal human dermal fibroblasts (NHDF), NHDF. The method, then: (§1) Compound cytotoxicity was evaluated in Hela S3 cancer cells and non-tumor human dermal fibroblasts (NHDF). All cell lines were obtained from ATCC (Manassas, VA, USA). The cytotoxicity was assayed using CellTiter-Glo® 2.0 detection reagent (Promega, Madison, USA) according to the manufacturer’s protocol.
In general terms: In ATP-based viability assays light output follows the ATP content of the culture.

Data set [2] is described as follows: Cytotoxicity of the prodrug in human cells (CellTiter-Glo 2.0), HeLa S3. As to conditions: human, HeLa S3 cells; HeLa S3, 10 µM; read-out: Cytotoxicity of prodrug: HeLaS3 viability. It counts as cell-based. The method, then:
as §1

The test system of another data set is T. brucei BSF427. Nature of the data set: Alamar Blue assay, BSF427 cells. It counts as cell-based. As to conditions: Trypanosoma brucei, read-out: T. brucei BSF EC50. The procedure: The bloodstream form (BSF) T. b. brucei Lister 427 and single marker (SM) strains were cultivated in HMI-11 medium and 10% FBS at 37 °C in a humidified atmosphere at 5% CO2[26]. HMI-11 medium containing dialyzed 10% FBS and only one defined source of the purine base, adenine, was used for selected experiments (50 μM, HMI-11^adenine). The SM cell line constitutively expressing ectopic T7 RNA polymerase and tetracycline repressor was used for the tetracycline-inducible expression of dsRNA and V5-tagged proteins. To generate SKD APRT1 and DKD APRT1/2 RNAi cell lines, the 524 bp and 537 bp fragments of the aprt-I (Tb927.7.1780) and aprt-II (Tb927.7.1790) open reading frames, respectively, were PCR amplified from T. brucei BSF427 genomic DNA with the oligonucleotides (Supplementary File S1). The APRT1 fragment was cloned into the p2T7-TABlue, while the APRT2 fragment was cloned into, into the p2T7-177 plasmid. The p2T7-TABlue plasmid containing the APRT1 fragment was electroporated to SM cells which were subjected to selection with hygromycin (5 µg/ml). Verified SKD APRT1 cell line was then transfected with Not-1 linearized p2T7-177 plasmid containing the APRT2 fragment and the resulting DKD APRT1/2 cell line was selected with phleomycin (2.5 µg/ml). For the inducible expression of V5-tagged APRT1 andAPRT2, the coding sequences of the respective genes were PCR amplified using oligonucleotides listed in Supporting Information S1. The obtained PCR fragments were cloned into the pT7_N-term-V5 vector[6] using BglII or BamHI and XbaI restriction enzymes. Plasmids were then transfected to SM BSF cells. The resulting transfectants were established in medium containing puromycin (0.1 µg/ml). The induction of the dsRNA or tagged proteins was triggered by the addition of 1 µg/ml of tetracycline into the medium.
An Alamar Blue Assay was performed in a 96-well plate format to screen for sensitivity of T. brucei BSF cells to ANPs as previously published. The EC50 values were calculated using non-linear regression in GraphPad Prism 9.
On the technique in general: Resazurin is reduced to fluorescent resorufin, in cell work by metabolically active cells.

Data set [3] addresses recombinant T. brucei APRT1 (Trypanosoma brucei brucei, UniProt Q57V32). Nature of the data set: APRT1 steady-state enzyme kinetics for substrates. The note with it: substrate of T. brucei APRT1. The procedure: To test if the newly synthesized ANPs with an adenine as a nucleobase can inhibit the activity of the APRT1 and APRT2, both enzymes were overexpressed in E. coli. […] First, we monitored the APRT1 enzyme activity by a continuous spectrophotometric assay measuring the conversion of adenine to AMP at 256 nm.
The methodology was adapted from Ref.[6]. Briefly, the enzyme kinetics of APRT1 were measured by a continuous spectrophotometric assay measuring the conversion of adenine to AMP, at 256 nm. The concentration of enzyme in the assay was 140 nM, the concentration of PRib-PP was kept at 1 mM and the adenine concentration varied from 3.75 to 60 μM. The reaction was carried out using a 1.0 cm path length with a UV Visible spectrometer 1601 (Shimadzu) in the reaction buffer (0.1 M Tris, pH 8.4; 0.11 M MgCl2; at 25 °C). The initial velocity (V0 [µM/min]) was calculated using Beer–Lambert law for different concentration of the purine substrate molecules: A = Δε × L × c where A is the measured absorbance, Δε is constant 2100 M^−1 cm^−1 for adenine, c is a concentration of the product formed in one minute (V0) and L is the length of a cuvette. The Km, Vmax and kcat values were calculated using GraphPad Prism 9 according to Michaelis–Menten kinetics. […] The Ki values were calculated using non-linear regression in GraphPad Prism 9.

Data set [4] concerns Leishmania donovani APRT1. Details: method as in PMID 11900545. As to conditions: substrate of Leishmania donovani APRT1; cited from earlier work.
For data set [5], the system named is Normal human dermal fibroblasts (NHDF). Nature of the data set: Cytotoxicity of the prodrug in human cells (CellTiter-Glo 2.0), NHDF. It counts as cell-based. As to conditions: 10 µM. The method, then:
as §1

The test system of a further data set is HeLa S3 cells. Nature of the data set: Cytotoxicity of the prodrug in human cells (CellTiter-Glo 2.0), HeLa S3. The note with it: HeLa S3, 10 µM. Type of data set: cell-based. The procedure: as §1
Substrate in data set [6]: Nc1ncnc2nc[nH]c12
In words: purified protein, by the assay type. As to conditions: other: substrate of T. brucei APRT1; pH 8.4; 25.0 °C.

As a reminder, the viability is a read-out of living cells in per cent, often relative to untreated cells. In general, EC50 refers to the midpoint of the concentration-response curve. Turning to `CC(C)OC(=O)[C@H](Cc1ccccc1)NP(=O)(CSCCCn1cnc2c(N)ncnc21)N[C@@H](Cc1ccccc1)C(=O)OC(C)C` [24a, 9-(5-(Bis((S-1-isopropoxycarbonyl-2-phenylethyl)amino)phosphoryl)-4-thiapentyl)adenine], the “direct microscopic observation of exposed T. brucei cells” value with T. brucei BSF cells was “problems in the cell cycle”. For the same molecule, the “distribution of cell cycle stages by flow cytometry (DNA content)” value with T. brucei BSF cells (1 to 16 µM, 12 h, propidium iodide) is recorded as “increase in the number of cells in G1-phase”. Moreover, the viability at 10 µM in data set [1] stood at 89%; in [2] it was 99%. In addition, the EC50 in the data set with T. brucei BSF427 (BSF427, HMI-11^adenine medium (50 μM adenine as sole purine)) was found to be 6.36 µM; in the data set on T. brucei BSF427 (BSF427, HMI-11 medium) it was 6.16 µM.

A word on the Km: it is the substrate concentration at which the rate is half of its maximum. On to `O=P(O)(O)OC[C@H]1O[C@H](OP(=O)(O)OP(=O)(O)O)[C@H](O)[C@@H]1O` [phosphoribosyl pyrophosphate (PRib-P), 5-phospho-α-D-ribosyl-1-pyrophosphate], for which, in data set [3], the Kcat was determined as 1.8 s⁻¹. Moreover, the Michaelis-Menten constant (Km) is 162 ± 21.6 µM in data set [3] and 25.1 ± 5.9 µM in [4].

`Nc1ncnc2[nH]cnc12` [adenine]: in [4], the Kcat was 17.9 s⁻¹ and the Michaelis-Menten constant (Km) was 2.3 ± 1.1 µM.

Regarding `CCOC(=O)[C@H](Cc1ccccc1)NP(=O)(CCN(CCN(CCP(=O)(N[C@@H](Cc1ccccc1)C(=O)OCC)N[C@@H](Cc1ccccc1)C(=O)OCC)CCP(=O)(N[C@@H](Cc1ccccc1)C(=O)OCC)N[C@@H](Cc1ccccc1)C(=O)OCC)CCn1cnc2c(N)ncnc21)N[C@@H](Cc1ccccc1)C(=O)OCC` [compound 28, Hexa-(ethyl L-phenylalanine) prodrug of (2-((2-((2-(adenine-9-yl)ethyl)(2-phosphonoethyl)amino)ethyl)(2-phosphonoethyl)amino)ethyl)phosphonic acid], the “direct microscopic observation of exposed T. brucei cells” value in the data set with T. brucei BSF cells is given as “problems in the cell cycle”. The “effect on viability of NHDF (in words)” value in [5] is “toxic”. The “Cytotoxicity of prodrug: NHDF viability” value in data set [5] (NHDF) is 4%. Besides, the “Cytotoxicity of prodrug: HeLaS3 viability” value in the data set with HeLa S3 cells amounted to 94%.

B1: recombinant T. brucei APRT1 (Trypanosoma brucei brucei TREU927) (protein)
chain: SLVEVLPNYFTLSKDSPLRKKFEKVYKWYSPAFSPHDVPRFAEVGNITENPEVMRGIRDFFVDRYKNLQQPITHILGFDSRGFLLGPMIAVELNVPFVLIRKANKIAGVIIKSEPYTKEYAAESEECMTVRFGSFDKNSRVVLIDDVIATGGTMLAGVQLVDACGATLVEVAGILGLTFLKGTQPAHTFAGGRYSNVPFVTLVDETVLSDENCGDPLHHKGSRIISCAEAKKLI
For orientation: kcat means the maximal rate divided by the concentration of active sites. Turning to B1, in data set [6], the Km was determined as 8.7 ± 1.9 µM and the kcat worked out at 0.82 s⁻¹.
